Reference: US20260092071A1, “COMPOUNDS AND COMPOSITIONS AS SMARCA2/4 DEGRADERS AND USES THEREOF” (REGENTS OF THE UNIVERSITY OF MICHIGAN, priority 2022, published 2026)

Key:
[1] = target: SMARCA2 (Homo sapiens, UniProt P51531); assay: HiBit assay in engineered HT1080 CRISPR knock-in cell, 6 hrs (B series), SMARCA2; type: cell-based; conditions: 6 hrs incubation; for DC50: HT1080 CRISPR knock-in cells, read-out: SMARC A2 HT1080 HiBit DC50; for Dmax: HT-1080, HT1080 CRISPR knock-in cells, read-out: SMARC A2 HT1080 HiBit Dmax (%)
Method in brief: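 Compounds were dispensed first, then HT1080 knock-in cells added and incubated for 6 hrs at 37° C. Next, detection reagent containing LgBiT and lytic substrate was added. Plates were shaken 10 min and centrifuged, and luminescence was measured.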

[2] = target: SMARCA4 (Homo sapiens, UniProt P51532); assay: HiBit assay in engineered HT1080 CRISPR knock-in cell, 6 hrs (B series), SMARCA4; type: cell-based; conditions: 6 hrs incubation; for DC50: HT1080 CRISPR knock-in cells, read-out: SMARC A4 HT1080 HiBit DC50; for Dmax: HT-1080, HT1080 CRISPR knock-in cells, read-out: SMARC A4 HT1080 HiBit Dmax(%)
Method in brief: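 Protein abundance is measured in HiBiT-tagged HT1080 CRISPR knock-in cells after a 6 hr compound treatment (0.1% DMSO) by lytic Nano-Glo HiBiT luminescence.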

Chain of SMARCA4 (P51532 whole entry): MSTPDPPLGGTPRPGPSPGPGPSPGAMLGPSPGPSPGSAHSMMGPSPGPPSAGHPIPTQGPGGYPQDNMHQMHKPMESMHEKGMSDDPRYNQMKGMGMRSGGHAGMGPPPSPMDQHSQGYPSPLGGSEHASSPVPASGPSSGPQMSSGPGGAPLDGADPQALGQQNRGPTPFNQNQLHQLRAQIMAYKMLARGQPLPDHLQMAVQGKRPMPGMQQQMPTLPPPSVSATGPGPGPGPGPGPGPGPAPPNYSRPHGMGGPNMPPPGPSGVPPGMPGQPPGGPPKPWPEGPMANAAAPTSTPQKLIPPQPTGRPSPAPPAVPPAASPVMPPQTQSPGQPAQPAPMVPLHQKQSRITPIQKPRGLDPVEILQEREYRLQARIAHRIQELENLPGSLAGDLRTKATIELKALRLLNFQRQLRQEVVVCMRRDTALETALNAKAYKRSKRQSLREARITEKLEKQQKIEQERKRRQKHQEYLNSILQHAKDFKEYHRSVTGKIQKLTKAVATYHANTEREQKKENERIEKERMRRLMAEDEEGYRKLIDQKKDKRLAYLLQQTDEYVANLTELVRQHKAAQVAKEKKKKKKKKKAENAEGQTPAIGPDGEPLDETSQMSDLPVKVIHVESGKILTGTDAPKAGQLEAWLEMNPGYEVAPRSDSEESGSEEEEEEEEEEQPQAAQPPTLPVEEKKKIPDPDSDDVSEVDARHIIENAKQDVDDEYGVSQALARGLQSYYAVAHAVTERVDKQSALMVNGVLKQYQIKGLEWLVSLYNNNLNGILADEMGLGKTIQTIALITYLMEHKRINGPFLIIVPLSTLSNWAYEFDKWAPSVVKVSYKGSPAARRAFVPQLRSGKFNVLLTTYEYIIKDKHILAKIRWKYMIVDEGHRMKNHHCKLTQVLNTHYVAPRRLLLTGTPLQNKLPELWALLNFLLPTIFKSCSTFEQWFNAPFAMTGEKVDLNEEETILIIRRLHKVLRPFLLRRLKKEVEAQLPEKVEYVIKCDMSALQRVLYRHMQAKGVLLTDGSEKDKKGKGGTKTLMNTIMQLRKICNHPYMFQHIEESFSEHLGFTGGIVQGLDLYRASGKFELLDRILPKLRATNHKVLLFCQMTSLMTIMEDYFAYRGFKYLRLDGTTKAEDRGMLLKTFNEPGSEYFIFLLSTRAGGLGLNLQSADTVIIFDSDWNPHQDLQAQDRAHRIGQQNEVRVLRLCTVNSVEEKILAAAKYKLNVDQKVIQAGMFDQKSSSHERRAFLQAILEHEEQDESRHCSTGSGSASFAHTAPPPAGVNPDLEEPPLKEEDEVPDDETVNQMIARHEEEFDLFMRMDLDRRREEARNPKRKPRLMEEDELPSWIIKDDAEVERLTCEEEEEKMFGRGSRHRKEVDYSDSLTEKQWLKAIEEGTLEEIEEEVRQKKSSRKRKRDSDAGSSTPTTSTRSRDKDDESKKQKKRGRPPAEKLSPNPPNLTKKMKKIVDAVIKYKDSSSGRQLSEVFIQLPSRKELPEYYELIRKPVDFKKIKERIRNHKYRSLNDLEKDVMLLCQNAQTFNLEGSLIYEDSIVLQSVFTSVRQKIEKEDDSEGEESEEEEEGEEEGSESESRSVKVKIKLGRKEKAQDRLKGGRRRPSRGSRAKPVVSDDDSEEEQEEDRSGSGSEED
Chain of SMARCA2 (P51531 whole entry): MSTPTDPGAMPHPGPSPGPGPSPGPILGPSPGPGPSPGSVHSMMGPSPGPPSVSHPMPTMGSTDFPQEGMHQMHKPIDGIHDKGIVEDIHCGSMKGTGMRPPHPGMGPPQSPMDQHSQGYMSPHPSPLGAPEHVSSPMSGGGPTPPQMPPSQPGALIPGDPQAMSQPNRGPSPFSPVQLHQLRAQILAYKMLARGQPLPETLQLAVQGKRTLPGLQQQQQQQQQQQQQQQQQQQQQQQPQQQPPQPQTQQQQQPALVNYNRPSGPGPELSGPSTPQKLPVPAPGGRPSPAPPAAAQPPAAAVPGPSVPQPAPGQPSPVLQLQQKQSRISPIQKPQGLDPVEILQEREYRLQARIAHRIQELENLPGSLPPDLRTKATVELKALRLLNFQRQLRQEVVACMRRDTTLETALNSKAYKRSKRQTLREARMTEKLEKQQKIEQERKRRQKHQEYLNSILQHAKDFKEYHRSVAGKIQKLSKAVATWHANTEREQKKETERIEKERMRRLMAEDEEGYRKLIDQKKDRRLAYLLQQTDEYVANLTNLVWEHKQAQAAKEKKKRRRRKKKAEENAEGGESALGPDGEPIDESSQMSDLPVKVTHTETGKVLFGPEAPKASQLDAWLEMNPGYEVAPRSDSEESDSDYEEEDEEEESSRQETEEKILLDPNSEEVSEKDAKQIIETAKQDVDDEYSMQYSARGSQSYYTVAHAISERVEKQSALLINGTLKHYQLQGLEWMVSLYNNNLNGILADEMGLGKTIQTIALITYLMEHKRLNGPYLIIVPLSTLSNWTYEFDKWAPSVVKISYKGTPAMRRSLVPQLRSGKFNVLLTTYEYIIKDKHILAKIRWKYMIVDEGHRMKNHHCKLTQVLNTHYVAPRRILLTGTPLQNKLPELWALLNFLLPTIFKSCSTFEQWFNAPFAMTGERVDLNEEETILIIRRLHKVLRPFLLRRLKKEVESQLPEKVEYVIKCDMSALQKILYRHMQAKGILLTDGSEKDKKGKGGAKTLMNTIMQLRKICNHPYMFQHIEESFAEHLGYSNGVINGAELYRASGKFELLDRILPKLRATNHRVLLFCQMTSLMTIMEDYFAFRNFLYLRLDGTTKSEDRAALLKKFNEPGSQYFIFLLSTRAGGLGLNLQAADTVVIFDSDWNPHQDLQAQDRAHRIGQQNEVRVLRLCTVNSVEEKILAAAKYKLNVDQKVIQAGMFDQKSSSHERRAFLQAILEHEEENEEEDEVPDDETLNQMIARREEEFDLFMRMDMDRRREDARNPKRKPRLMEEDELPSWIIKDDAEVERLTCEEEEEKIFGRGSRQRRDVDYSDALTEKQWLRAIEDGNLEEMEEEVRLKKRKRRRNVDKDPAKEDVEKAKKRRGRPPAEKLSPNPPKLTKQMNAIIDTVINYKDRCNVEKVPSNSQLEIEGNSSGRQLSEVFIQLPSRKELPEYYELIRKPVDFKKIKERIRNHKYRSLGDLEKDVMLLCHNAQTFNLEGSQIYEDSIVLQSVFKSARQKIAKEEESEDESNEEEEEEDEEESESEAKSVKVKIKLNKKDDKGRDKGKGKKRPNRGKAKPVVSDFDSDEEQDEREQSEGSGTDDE

Row | SMILES | DC50 [1] [µM] | Dmax [1] [%] | DC50 [2] [µM] | Dmax [2] [%]
1 | Cc1ncsc1-c1ccc([C@H](C)NC(=O)[C@@H]2C[C@@H](O)CN2C(=O)[C@@H](NC(=O)CCn2cc(-c3ccc4c(c3)C(C)(C)c3nc(=O)c5c(Cl)cccc5n3-4)cn2)C(C)(C)C)cc1 [Compound B101, (2S,4R)-1-((S)-2-(3-(4-(4-chloro-7,7-dimethyl-5-oxo-5,7-dihydroindolo[1,2-a]quinazolin-9-yl)-1H-pyrazol-1-yl)propanamido)-3,3-dimethylbutanoyl)-4-hydroxy-N-((S)-1-(4-(4-methylthiazol-5-yl)phenyl)ethyl)pyrrolidine-2-carboxamide] | > 1 | < 50 | > 1 | < 50
2 | Cc1nc(C)c(-c2ccc([C@H](C)NC(=O)[C@@H]3C[C@@H](O)CN3C(=O)[C@@H](n3cc([C@H]4CC[C@H](CN5CCN(c6ccc7c(c6)-n6c(nc(=O)c8c(Cl)cccc86)C7(C)C)CC5)CC4)nn3)C(C)(C)C)cc2)s1 [Compound B133, (2S,4R)-1-((S)-2-(4-((1r,4S)-4-((4-(4-chloro-7,7-dimethyl-5-oxo-5,7-dihydroindolo[1,2-a]quinazolin-10-yl)piperazin-1-yl)methyl)cyclohexyl)-1H-1,2,3-triazol-1-yl)-3,3-dimethylbutanoyl)-N-((S)-1-(4-(2,4-dimethylthiazol-5-yl)phenyl)ethyl)-4-hydroxypyrrolidine-2-carboxamide] | < 0.1 | > 90 | < 0.1 | 70 to 90
3 | Cc1ncsc1-c1ccc(CNC(=O)[C@@H]2C[C@@H](O)CN2C(=O)[C@@H](NC(=O)C2(F)CC2)C(C)(C)C)c(OCCN2CCC(c3ccc4c(c3)-n3c(nc(=O)c5c(Cl)cccc53)C4(C)C)CC2)c1 [Compound B34, (2S,4R)-N-(2-(2-(4-(4-chloro-7,7-dimethyl-5-oxo-5,7-dihydroindolo[1,2-a]quinazolin-10-yl)piperidin-1-yl)ethoxy)-4-(4-methylthiazol-5-yl)benzyl)-1-((S)-2-(1-fluorocyclopropane-1-carboxamido)-3,3-dimethylbutanoyl)-4-hydroxypyrrolidine-2-carboxamide] | < 0.1 | > 90 | < 0.1 | > 90
4 | Cc1ncoc1-c1ccc([C@H](C)NC(=O)[C@@H]2C[C@@H](O)CN2C(=O)[C@@H](n2cc([C@H]3CC[C@H](CN4CCN(c5ccc6c(c5)-n5c(nc(=O)c7c(Cl)cccc75)C6(C)C)CC4)CC3)nn2)C(C)(C)C)cc1 [Compound B126, (2S,4R)-1-((S)-2-(4-((1r,4S)-4-((4-(4-chloro-7,7-dimethyl-5-oxo-5,7-dihydroindolo[1,2-a]quinazolin-10-yl)piperazin-1-yl)methyl)cyclohexyl)-1H-1,2,3-triazol-1-yl)-3,3-dimethylbutanoyl)-4-hydroxy-N-((S)-1-(4-(4-methyloxazol-5-yl)phenyl)ethyl)pyrrolidine-2-carboxamide] | < 0.1 | > 90 | < 0.1 | 50 to 69
5 | Cc1ncsc1-c1ccc([C@H](C)NC(=O)[C@@H]2C[C@@H](O)CN2C(=O)[C@@H](c2cc(OCC3CCC(N4CCC(c5cccc6c5C(C)(C)c5nc(=O)c7c(Cl)cccc7n5-6)CC4)CC3)no2)C(C)C)cc1 (stereo partly drawn) [Compound B100, (2S,4R)-1-((R)-2-(3-((4-(4-(4-chloro-7,7-dimethyl-5-oxo-5,7-dihydroindolo[1,2-a]quinazolin-8-yl)piperidin-1-yl)cyclohexyl)methoxy)isoxazol-5-yl)-3-methylbutanoyl)-4-hydroxy-N-((S)-1-(4-(4-methylthiazol-5-yl)phenyl)ethyl)pyrrolidine-2-carboxamide] | < 0.1 | 70 to 90 | < 0.1 | < 50
6 | Cc1ncsc1-c1ccc([C@H](C)NC(=O)[C@@H]2C[C@@H](O)CN2C(=O)[C@@H](NC(=O)c2cccc(CN3CCC(c4ccc5c(c4)C(C)(C)c4nc(=O)c6c(Cl)cccc6n4-5)CC3)c2)C(C)(C)C)cc1 [Compound B16, (2S,4R)-1-((S)-2-(3-((4-(4-chloro-7,7-dimethyl-5-oxo-5,7-dihydroindolo[1,2-a]quinazolin-9-yl)piperidin-1-yl)methyl)benzamido)-3,3-dimethylbutanoyl)-4-hydroxy-N—((S)-1-(4-(4-methylthiazol-5-yl)phenyl)ethyl)pyrrolidine-2-carboxamide] | < 0.1 | > 90 | < 0.1 | 70 to 90

Further lines, results first:

Row | DC50 [1] [µM] | Dmax [1] [%] | DC50 [2] [µM] | Dmax [2] [%] | SMILES
7 | < 0.1 | > 90 | < 0.1 | 70 to 90 | Cc1ncsc1-c1ccc([C@H](C)NC(=O)[C@@H]2C[C@@H](O)CN2C(=O)[C@@H](c2cc(OCCN3CCC(c4ccc5c(c4)C(C)(C)c4nc(=O)c6c(Cl)cccc6n4-5)CC3)no2)C(C)C)cc1 [Compound B4, (2S,4R)-1-((R)-2-(3-(2-(4-(4-chloro-7,7-dimethyl-5-oxo-5,7-dihydroindolo[1,2-a]quinazolin-9-yl)piperidin-1-yl)ethoxy)isoxazol-5-yl)-3-methylbutanoyl)-4-hydroxy-N—((S)-1-(4-(4-methylthiazol-5-yl)phenyl)ethyl)pyrrolidine-2-carboxamide]
8 | < 0.1 | > 90 | < 0.1 | 70 to 90 | C[C@H](NC(=O)[C@@H]1C[C@@H](O)CN1C(=O)[C@@H](n1cc([C@H]2CC[C@H](CN3CCN(c4ccc5c(c4)-n4c(nc(=O)c6c(Cl)cccc64)C5(C)C)CC3)CC2)nn1)C(C)(C)C)c1ccc(-c2ccn[nH]2)cc1 [Compound B127, (2S,4R)-N-((S)-1-(4-(1H-pyrazol-5-yl)phenyl)ethyl)-1-((S)-2-(4-((1r,4S)-4-((4-(4-chloro-7,7-dimethyl-5-oxo-5,7-dihydroindolo[1,2-a]quinazolin-10-yl)piperazin-1-yl)methyl)cyclohexyl)-1H-1,2,3-triazol-1-yl)-3,3-dimethylbutanoyl)-4-hydroxypyrrolidine-2-carboxamide]
9 | < 0.1 | > 90 | 0.1 to 0.5 | 50 to 69 | Cc1ncsc1-c1ccc([C@H](C)NC(=O)[C@@H]2C[C@@H](O)CN2C(=O)[C@@H](c2cc(OCC#Cc3cccc4c3C(C)(C)c3nc(=O)c5c(Cl)cccc5n3-4)no2)C(C)C)cc1 [Compound B130, (2S,4R)-1-((R)-2-(3-((3-(4-chloro-7,7-dimethyl-5-oxo-5,7-dihydroindolo[1,2-a]quinazolin-8-yl)prop-2-yn-1-yl)oxy)isoxazol-5-yl)-3-methylbutanoyl)-4-hydroxy-N-((S)-1-(4-(4-methylthiazol-5-yl)phenyl)ethyl)pyrrolidine-2-carboxamide]
10 | < 0.1 | > 90 | < 0.1 | 70 to 90 | Cc1ncsc1-c1ccc([C@H](C)NC(=O)[C@@H]2C[C@@H](O)CN2C(=O)[C@@H](c2cc(N3CCC(CN4CCC(c5ccc6c(c5)-n5c(nc(=O)c7c(Cl)cccc75)C6(C)C)CC4)CC3)no2)C(C)C)cc1 [Compound B37, (2S,4R)-1-((R)-2-(3-(4-((4-(4-chloro-7,7-dimethyl-5-oxo-5,7-dihydroindolo[1,2-a]quinazolin-10-yl)piperidin-1-yl)methyl)piperidin-1-yl)isoxazol-5-yl)-3-methylbutanoyl)-4-hydroxy-N-((S)-1-(4-(4-methylthiazol-5-yl)phenyl)ethyl)pyrrolidine-2-carboxamide]
11 | < 0.1 | > 90 | 0.1 to 0.5 | 50 to 69 | Cc1ncsc1-c1ccc([C@H](CC(=O)N[C@H]2CC[C@H](CN3CCC(c4ccc5c(c4)-n4c(nc(=O)c6c(Cl)cccc64)C5(C)C)CC3)CC2)NC(=O)[C@@H]2C[C@@H](O)CN2C(=O)[C@@H](NC(=O)C2(F)CC2)C(C)(C)C)cc1 [Compound B22, (2S,4R)-N-((S)-3-(((1r,4S)-4-((4-(4-chloro-7,7-dimethyl-5-oxo-5,7-dihydroindolo[1,2-a]quinazolin-10-yl)piperidin-1-yl)methyl)cyclohexyl)amino)-1-(4-(4-methylthiazol-5-yl)phenyl)-3-oxopropyl)-1-((S)-2-(1-fluorocyclopropane-1-carboxamido)-3,3-dimethylbutanoyl)-4-hydroxypyrrolidine-2-carboxamide]
12 | < 0.1 | > 90 | 0.1 to 0.5 | < 50 | Cc1ncsc1-c1ccc([C@H](C)NC(=O)[C@@H]2C[C@@H](O)CN2C(=O)[C@@H](NC(=O)[C@H]2CC[C@H](CN3CCC(c4ccc5c(c4)-n4c(nc(=O)c6c(Cl)cccc64)C5(C)C)CC3)CC2)C(C)(C)C)cc1 [Compound B40, (2S,4R)-1-((S)-2-((1r,4S)-4-((4-(4-chloro-7,7-dimethyl-5-oxo-5,7-dihydroindolo[1,2-a]quinazolin-10-yl)piperidin-1-yl)methyl)cyclohexane-1-carboxamido)-3,3-dimethylbutanoyl)-4-hydroxy-N-((S)-1-(4-(4-methylthiazol-5-yl)phenyl)ethyl)pyrrolidine-2-carboxamide]
13 | < 0.1 | > 90 | 0.1 to 0.5 | < 50 | Cc1ncsc1-c1ccc([C@H](C)NC(=O)[C@@H]2C[C@@H](O)CN2C(=O)[C@@H](NC(=O)CC2CCC(N3CCC(c4ccc5c(c4)-n4c(nc(=O)c6c(Cl)cccc64)C5(C)C)CC3)CC2)C(C)(C)C)cc1 (stereo partly drawn) [Compound B63, (2S,4R)-1-((S)-2-(2-(4-(4-(4-chloro-7,7-dimethyl-5-oxo-5,7-dihydroindolo[1,2-a]quinazolin-10-yl)piperidin-1-yl)cyclohexyl)acetamido)-3,3-dimethylbutanoyl)-4-hydroxy-N-((S)-1-(4-(4-methylthiazol-5-yl)phenyl)ethyl)pyrrolidine-2-carboxamide]
